These results are taken from ChEMBL document CHEMBL4371048, “Ganocapenoids A-D: Four new aromatic meroterpenoids from Ganoderma capense” (Bioorg Med Chem Lett, 2019).

Active and inactive are the calls of the source. No cut-off for these calls is given here.

The subject of one data set is PC-12. Put plainly: Neurite-outgrowth promoting activity in NGF-differentiated rat PC12 cells assessed as cell differentiation at 10 uM after 72 hrs by phase contrast microscopic method (reference value: 4.72 +/- 1.18%). The format is functional, cell-based.
The next data set addresses Acetylcholinesterase (Homo sapiens, UniProt P22303). Put plainly: Inhibition of AchE (unknown origin) using acetylthiocholine iodide as substrate preincubated for 20 mins followed by substrate addition and measured every 20 secs for 20 times by Ellman's assay. Background: DTNB colorimetry detects thiols as they appear.
Data set [1] concerns HepG2. Put plainly: Cytotoxicity against human HepG2 cells assessed as effect on cell viability at 10 to 160 uM after 48 hrs by MTT assay. The settings on record: hepg2, 48 h. The format is cell-based.
In data set [2] the test system is HepG2. The experiment in a line: Reduction in lipid accumulation in human HepG2 cells after 24 hrs by Oil-red O staining based microscopic analysis. The format is functional, cell-based.
Data set [3] relates to HepG2. The experiment in a line: Decrease in SREBP2 mRNA level in human HepG2 cells at 20 to 40 uM after 24 hrs by qPCR analysis. The format is functional, cell-based. A general note: Real-time PCR tracks product formation cycle by cycle.
The subject of data set [4] is HepG2. Put plainly: Decrease in HMGCR mRNA level in human HepG2 cells at 20 to 40 uM after 24 hrs by qPCR analysis. The format is functional, cell-based.
Data set [5] deals with HepG2. Put plainly: Increase in LDLR expression in human HepG2 cells at 20 to 40 uM after 24 hrs by Western blot analysis. The format is functional, cell-based.
Data set [6] has as its system HepG2. Put plainly: Decrease in HMGCR expression in human HepG2 cells at 20 to 40 uM after 24 hrs by Western blot analysis. The format is functional, cell-based.
Data set [7] deals with HepG2. The experiment in a line: Increase in PPARgamma mRNA level in human HepG2 cells at 20 to 40 uM after 24 hrs by qPCR analysis. The format is functional, cell-based.
In data set [8] the test system is HepG2. The experiment in a line: Increase in ABCG1 mRNA level in human HepG2 cells at 20 to 40 uM after 24 hrs by qPCR analysis. The format is functional, cell-based.
Data set [9] deals with HepG2. The experiment in a line: Increase in LXRalpha mRNA level in human HepG2 cells at 20 to 40 uM after 24 hrs by qPCR analysis. The format is functional, cell-based.
Data set [10] relates to HepG2. The experiment in a line: Increase in PPARgamma expression in human HepG2 cells at 20 to 40 uM after 24 hrs by Western blot analysis. The format is functional, cell-based. For orientation: In western blotting, separated proteins are transferred to a membrane and probed.
In data set [11] the test system is HepG2. The experiment in a line: Increase in ABCG1 expression in human HepG2 cells at 20 to 40 uM after 24 hrs by Western blot analysis. The format is functional, cell-based.

Acetylcholinesterase, sequence (P22303 whole entry): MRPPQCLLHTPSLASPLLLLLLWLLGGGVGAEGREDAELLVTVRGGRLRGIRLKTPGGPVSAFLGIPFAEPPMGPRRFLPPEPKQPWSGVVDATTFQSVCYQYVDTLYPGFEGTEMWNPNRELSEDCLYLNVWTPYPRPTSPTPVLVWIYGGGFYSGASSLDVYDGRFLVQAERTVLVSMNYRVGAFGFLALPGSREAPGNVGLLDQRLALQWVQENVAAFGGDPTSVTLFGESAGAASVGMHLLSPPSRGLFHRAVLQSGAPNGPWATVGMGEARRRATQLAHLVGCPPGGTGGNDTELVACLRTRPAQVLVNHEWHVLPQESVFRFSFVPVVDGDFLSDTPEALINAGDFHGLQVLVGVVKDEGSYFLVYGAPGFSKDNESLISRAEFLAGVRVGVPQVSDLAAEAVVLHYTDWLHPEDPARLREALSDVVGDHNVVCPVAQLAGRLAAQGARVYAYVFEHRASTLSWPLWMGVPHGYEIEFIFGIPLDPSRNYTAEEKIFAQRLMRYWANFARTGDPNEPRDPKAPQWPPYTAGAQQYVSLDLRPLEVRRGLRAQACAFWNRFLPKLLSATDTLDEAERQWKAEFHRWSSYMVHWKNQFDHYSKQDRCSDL

`CC1(C)Oc2ccc(O)cc2C2=C1CCC(C(=O)O)=C2`: in the data set on PC-12, the Activity is reported as 4.89%.

Take `C/C(=C/CCC1=C[C@@H](c2cc(O)ccc2O)OC1=O)CO`: the Activity with PC-12 was found to be 12.31%.

By IC50 is commonly meant the midpoint of a concentration-inhibition curve. For `C/C(=C/CC[C@H](CO)c1cc2cc(O)c(O)cc2o1)CO`, the Activity in the data set with PC-12 is 7.11%. On Acetylcholinesterase, this molecule yielded a 50% inhibitory concentration (IC50) of 28.6 µM.

Take `C/C(=C\CCC1=C[C@@H](c2cc(O)ccc2O)OC1=O)CCC=C(CO)CO`: the Activity with PC-12 is 6.19%.

On to `COC(=O)/C(=C\C(=O)c1cc(O)ccc1O)CC/C=C(\C)CCC=C(C)C`, for which the Activity in the data set on PC-12 came to 10.95%. This molecule yielded a 50% inhibitory concentration (IC50) against Acetylcholinesterase of 8.2 µM.

`O=C(O)CC1(CC(=O)c2cc(O)ccc2O)C=C(CO)CCC1` (stereo not drawn): the Activity with PC-12 is 5.97%. The molecule further had an IC50 against Acetylcholinesterase of 26 µM.

On to `C/C1=C\CCC2=CC(c3cc(O)ccc3O)(OC/C(CO)=C/CC1)OC2=O` (stereo not drawn), for which the results for the Activity entry with HepG2 [1] and with HepG2 [2] were “Non-Toxic” and “Dose-dependent effect”, respectively. The outcome in the data set on HepG2 [3], with HepG2 [4], in the data set on HepG2 [5], in the data set with HepG2 [6], in the data set with HepG2 [7] and in the data set with HepG2 [8] was Active. The result in the data set on HepG2 [9], in the data set on HepG2 [10] and with HepG2 [11] was Active.

For `COC(=O)/C(=C\C(=O)c1cc(O)ccc1O)CC/C=C(\C)CCC=C(CO)CO`, the Activity in the data set on PC-12 amounted to 5.32%.

As to `C/C(=C/CCC1=C[C@H](c2cc(O)ccc2O)OC1=O)CO`, the Activity with PC-12 is listed as 11.67%.

For the molecule `C/C(=C\CCC1=C[C@H](c2cc(O)ccc2O)OC1=O)CCC=C(CO)CO`, the Activity with PC-12 came out at 6.72%.
